TGI and GI50 data for 15 compounds are collected here from PubChem BioAssay (NCI).

Among the test systems are 786-0 renal; A549 NSCLC; COLO 205 colon; KM12 colon; NCI-H23 lung; SF-539 CNS; SK-MEL-28 melanoma; SK-MEL-5 melanoma; SN12C renal; U251 CNS.
Holding throughout (experiment): inhibition of tumour cell growth, NCI panel, 48 h

Molecules are shown by their SMILES. Values joined by “and” are separate entries in the source; they are usually repeats but may differ in a detail not shown here. Equal values may be shown once.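 A five-concentration, 48-hour dose response in 96-well plates underlies each endpoint, interpolated linearly between surrounding concentrations. GI50 = concentration required for 50% inhibition of growth. TGI is the concentration that stops growth completely.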 A value given as a limit tells only on which side of the number the result lay.

For the compound `CCOc1cc2c(NCCCN(CCO)CCO)ncnc2c(OCC)c1OCC`, the TGI with 786-0 renal, with A549 NSCLC, in the experiment with COLO 205 colon, with KM12 colon, in the experiment on NCI-H23 lung and with SF-539 CNS was more than 100 µM each time. Also, the TGI with SK-MEL-28 melanoma, with SK-MEL-5 melanoma, in the experiment with SN12C renal and in the experiment on U251 CNS was more than 100 µM throughout.
As to `Cn1c(=O)c(Oc2ccccc2F)cc2cnc(NC3CCOCC3)nc21`, the GI50 in the experiment on 786-0 renal, with A549 NSCLC, in the experiment with COLO 205 colon, in the experiment with KM12 colon, in the experiment on NCI-H23 lung and in the experiment with SF-539 CNS was more than 25 µM throughout. In addition, the GI50 in the experiment with SK-MEL-28 melanoma, in the experiment with SK-MEL-5 melanoma, in the experiment on SN12C renal and in the experiment with U251 CNS was more than 25 µM each time. For the same compound, the TGI in the experiment with 786-0 renal, in the experiment with A549 NSCLC, in the experiment with COLO 205 colon, in the experiment on KM12 colon, with NCI-H23 lung and in the experiment with SF-539 CNS was more than 25 µM each time. Moreover, the TGI with SK-MEL-28 melanoma, with SK-MEL-5 melanoma, with SN12C renal and in the experiment with U251 CNS was more than 25 µM in each case.
`COc1cccc(C(=O)N2CCc3ccccc32)c1OC`: the TGI in the experiment with 786-0 renal, in the experiment on A549 NSCLC, with COLO 205 colon, with KM12 colon, in the experiment with NCI-H23 lung and with SF-539 CNS was more than 100 µM each time. Further, the TGI in the experiment with SK-MEL-28 melanoma, in the experiment on SK-MEL-5 melanoma, in the experiment with SN12C renal and in the experiment on U251 CNS was more than 100 µM each time.
For `COc1ccccc1NC(=O)n1nc(N)c2ccccc21`, the GI50 with 786-0 renal is more than 84 µM; in the experiment with A549 NSCLC it was more than 86.9 µM; in the experiment on COLO 205 colon it was more than 100 µM; in the experiment on KM12 colon, 47.4 µM; with NCI-H23 lung it was more than 100 µM; in the experiment on SF-539 CNS, 58.4 µM. The GI50 is more than 100 µM in the experiment with SK-MEL-28 melanoma, more than 87.9 µM with SK-MEL-5 melanoma, more than 100 µM in the experiment with SN12C renal and 74.1 µM in the experiment on U251 CNS. Moreover, the TGI with 786-0 renal, in the experiment with A549 NSCLC, in the experiment on COLO 205 colon, with KM12 colon, with NCI-H23 lung and with SF-539 CNS was more than 100 µM throughout. Further, the TGI in the experiment on SK-MEL-28 melanoma, in the experiment with SK-MEL-5 melanoma, in the experiment on SN12C renal and with U251 CNS was more than 100 µM throughout.
Turning to `COc1cc2c3c(c1)c1cc(OC)c(OC)cc1c[n+]3CC2`, the GI50 with 786-0 renal is 56.2 µM; in the experiment with A549 NSCLC, 76.7 µM; in the experiment with COLO 205 colon, 14.8 µM; with KM12 colon, 5.69 µM; in the experiment on SK-MEL-28 melanoma, 32.8 µM; with SK-MEL-5 melanoma it was 11.8 µM. Besides, the GI50 in the experiment with SN12C renal was 5.66 µM; with U251 CNS it was 1.28 µM. For the same compound, the TGI is 50 µM and > 100 µM with 786-0 renal; more than 100 µM in the experiment on A549 NSCLC; 50 µM and > 100 µM in the experiment with COLO 205 colon; 19.3 µM and 69.9 µM with KM12 colon; 45.6 µM and > 100 µM in the experiment with NCI-H23 lung; 50 µM in the experiment with SF-539 CNS. In addition, the TGI was 50 µM and > 100 µM in the experiment with SK-MEL-28 melanoma; 50 µM and 36.6 µM with SK-MEL-5 melanoma; 15.6 µM and > 100 µM in the experiment on SN12C renal; 50 µM and 25.9 µM with U251 CNS.
For the compound `CC(=O)O[C@H]1CC[C@@]2(C)C(=CC[C@H]3C4=CC=C(C(C)=O)[C@@]4(C)CCC32)C1` (stereo partly drawn), the TGI with 786-0 renal was more than 100 µM; in the experiment with A549 NSCLC it was more than 100 µM; in the experiment on COLO 205 colon, 39.6 µM; in the experiment with KM12 colon, more than 100 µM; in the experiment with SF-539 CNS, more than 100 µM; in the experiment on SK-MEL-28 melanoma it was more than 100 µM. The TGI in the experiment with SK-MEL-5 melanoma is 40.3 µM; in the experiment on SN12C renal it was more than 100 µM; with U251 CNS it was more than 100 µM.
On to `COc1cc2noc(-c3ccccc3)c2cc1OC`, for which the TGI in the experiment with 786-0 renal, with A549 NSCLC, in the experiment on COLO 205 colon, in the experiment with KM12 colon, with SF-539 CNS and in the experiment on SK-MEL-5 melanoma was more than 100 µM each time. Besides, the TGI with SN12C renal and with U251 CNS was more than 100 µM in each case.
As for `Cc1nc2ccc(Nc3nc(NCCN4CCOCC4)nc(Nc4ccc(F)cc4)n3)cc2n1Cc1ccccc1`, the GI50 in the experiment with 786-0 renal was 1.41 µM; in the experiment with A549 NSCLC, 3.69 µM; with COLO 205 colon it was 1.62 µM; in the experiment with KM12 colon it was 3.82 µM; with NCI-H23 lung it was 3.67 µM; in the experiment with SF-539 CNS it was 1.63 µM. In addition, the figures for the GI50 in the experiment on SK-MEL-28 melanoma, with SK-MEL-5 melanoma and with SN12C renal were 1.56 µM, 1.63 µM and 5.57 µM, respectively. The TGI is 3.04 µM in the experiment on 786-0 renal; more than 100 µM in the experiment on A549 NSCLC; 3.13 µM with COLO 205 colon; 19.9 µM in the experiment with KM12 colon; 24.8 µM with NCI-H23 lung; 3.23 µM in the experiment on SF-539 CNS. For the same compound, the results for the TGI with SK-MEL-28 melanoma, with SK-MEL-5 melanoma and in the experiment on SN12C renal were 2.94 µM, 2.98 µM and more than 100 µM, respectively.
`Cn1c(=O)nc2n(-c3cccc(F)c3)c3ccccc3nc-2c1=O`: the TGI is more than 100 µM in the experiment with 786-0 renal; 53.5 µM in the experiment with A549 NSCLC; 19 µM in the experiment with COLO 205 colon; more than 100 µM in the experiment with KM12 colon; 35.2 µM in the experiment on NCI-H23 lung; 66 µM in the experiment on SF-539 CNS. Further, the TGI in the experiment on SK-MEL-5 melanoma amounted to 27.3 µM; in the experiment with SN12C renal, 73.9 µM; in the experiment on U251 CNS it was 48.9 µM.
With `NNc1cccc(/C=C/c2ccccc2)cc1=O`, the GI50 is 19.9 µM in the experiment with 786-0 renal; 7.78 µM with A549 NSCLC; 7.76 µM with COLO 205 colon; 8.33 µM in the experiment on KM12 colon; 23 µM in the experiment with SF-539 CNS; 35.9 µM in the experiment with SK-MEL-28 melanoma. Moreover, the GI50 with SK-MEL-5 melanoma is 11.7 µM; with SN12C renal, 15.2 µM; with U251 CNS it was 6.93 µM. The TGI in the experiment with 786-0 renal, with A549 NSCLC, in the experiment with COLO 205 colon, with KM12 colon, in the experiment with SF-539 CNS and with SK-MEL-28 melanoma was more than 100 µM each time. Further, the TGI in the experiment on SK-MEL-5 melanoma, with SN12C renal and in the experiment on U251 CNS was more than 100 µM in each case.
For `CC1(C)OC(=O)C=C([O-])O1.CC1(C)OC(=O)C=C([O-])O1.O=S(=O)([O-])c1ccc([O-])c2ncccc12.O=S(=O)([O-])c1ccc([O-])c2ncccc12.[Ti+4]`, the GI50 in the experiment on 786-0 renal was more than 100 µM; in the experiment with A549 NSCLC, 48.6 µM; in the experiment on COLO 205 colon, more than 100 µM; in the experiment with KM12 colon, more than 100 µM; in the experiment with NCI-H23 lung it was more than 100 µM; in the experiment on SF-539 CNS, 78.5 µM. The GI50 with SK-MEL-28 melanoma was more than 100 µM; with SK-MEL-5 melanoma, 92 µM; with SN12C renal, more than 100 µM. For the same compound, the TGI in the experiment on 786-0 renal, in the experiment with A549 NSCLC, in the experiment on COLO 205 colon, in the experiment on KM12 colon, in the experiment with NCI-H23 lung and with SF-539 CNS was more than 100 µM each time. Also, the TGI with SK-MEL-28 melanoma, in the experiment with SK-MEL-5 melanoma and with SN12C renal was more than 100 µM in each case.
In the case of `C(CCC[Te][Te]CCCCCCOC1CCCCO1)CCOC1CCCCO1` (stereo not drawn), the TGI is 29.4 µM in the experiment on 786-0 renal; 41.5 µM in the experiment with A549 NSCLC; 36.5 µM in the experiment on COLO 205 colon; 28.9 µM in the experiment with KM12 colon; 31.1 µM in the experiment on NCI-H23 lung; 32.1 µM with SF-539 CNS. Moreover, the figures for the TGI in the experiment on SK-MEL-28 melanoma, with SN12C renal and in the experiment with U251 CNS were 27.4 µM, 29.4 µM and 24.5 µM, respectively.
In the case of `COc1ccc2c(c1OC)C1=C(C2=O)c2cc3c(cc2CCN1)OCO3`, the TGI in the experiment with 786-0 renal was more than 100 µM; in the experiment on A549 NSCLC it was more than 100 µM; in the experiment with COLO 205 colon it was more than 100 µM; in the experiment with KM12 colon, 78 µM; in the experiment on NCI-H23 lung it was more than 100 µM; with SF-539 CNS, 61.2 µM. Besides, the TGI was more than 100 µM in the experiment on SK-MEL-28 melanoma, 84.3 µM with SK-MEL-5 melanoma and more than 100 µM with SN12C renal.
In the case of `N=C(N=C(N)N)N1CCN(c2ccncc2)CC1`, the GI50 with 786-0 renal, in the experiment on A549 NSCLC, in the experiment on COLO 205 colon, in the experiment with KM12 colon, in the experiment with NCI-H23 lung and with SF-539 CNS was more than 1000 µM each time. For the same compound, the GI50 with SK-MEL-28 melanoma, in the experiment with SK-MEL-5 melanoma and with SN12C renal was more than 1000 µM throughout. The TGI in the experiment with 786-0 renal, in the experiment with A549 NSCLC, in the experiment with COLO 205 colon, with KM12 colon, with NCI-H23 lung and with SF-539 CNS was more than 1000 µM each time. In addition, the TGI with SK-MEL-28 melanoma, in the experiment with SK-MEL-5 melanoma and with SN12C renal was more than 1000 µM throughout.
As to `O=C(O)/C(=C/c1c(O)ccc2ccccc12)c1csc(-c2nc(/C(=C\c3c(O)ccc4ccccc34)C(=O)O)cs2)n1`, the TGI with 786-0 renal was determined as 26.8 µM; with A549 NSCLC, 55.5 µM; in the experiment with COLO 205 colon, 31.4 µM; in the experiment on KM12 colon it was 53.2 µM; in the experiment with NCI-H23 lung, 27.1 µM; in the experiment on SF-539 CNS, 19.1 µM. In addition, the TGI with SK-MEL-28 melanoma is 32.1 µM; in the experiment with SK-MEL-5 melanoma, 37.1 µM; in the experiment with U251 CNS, 30.3 µM.
